We go through 15 molecules from patent US9067937B2 (priority 2012, dated 2015).

One assay has as its system HT1197 cells. The assay can be described thus: Cell-based assay, anti-proliferative activity, MELK-negative control (Cell Counting Kit-8, 72 hours). On the set-up: species or system human. The settings on record: Homo sapiens, HT1197, 72 h, read-out: IC50 (μM) (HTll97). On the procedure:
(§1) 100 micro-L of cell suspension was seeded onto 96-well microtiter plate (ViewPlate-96FTC, PerkinElmer). The initial cell concentration of 22Rv1, T47D, A549, DU4475, and HT1197 were 3,000 cells/well, 2,000 cells/well and 2,500 cells/well, respectively. Cellular growth was determined using Cell Counting Kit-8 (DOJINDO) at 72 hours after the exposure of the candidate inhibitors. […] Accurate IC50 values were calculated as described previously.

The next assay concerns the target MELK (Homo sapiens, UniProt Q14680). The assay can be described thus: Kinase assay (IMAP fluorescence polarization, FITC-labeled histone H3 peptide). The settings on record: 50 micro-M ATP. The class given is biochemical. Here is the method: MELK activity was determined in the presence or absence of compounds using fluorescein isothiocyanate-labeled (FITC-labeled) histone H3 peptide as a substrate. […] The serially diluted compounds, 0.8 ng/micro-L […] (Carna Biosciences) and 100 nM FITC-labeled histone H3 peptide were reacted in a reaction buffer (20 mM HEPES, 0.01% Tween-20, 0.3 mM MgCl2, 2 mM dithiothreitol, 50 micro-M ATP, pH 7.4) at room temperature for 1 hour. The reaction was stopped by the addition of three fold assay volume of progressive binding solution. […] IC50 values were calculated by nonlinear four parameter fit using SigmaPlot, version 10.0 (Systat Software, Inc.).

For the next assay, the system named is A549 cells. The assay can be described thus: Cell-based assay, anti-proliferative activity (Cell Counting Kit-8, 72 hours). On the set-up: species or system human. The settings on record: Homo sapiens, A549, 72 h, read-out: IC50 (μM) (A549). On the procedure:
as §1, with “Active candidate inhibitors against MELK were evaluated for their target-specific cytotoxicity using 22Rv1, T47D, A549, DU4475 and HT-1197 cells was used for negative control. 100” for “100”

The subject of another assay is 22Rv1 cells. The assay is described as above. Also on record: species or system human. The following applies: Homo sapiens, 22Rv1, 72 h, read-out: IC50 (μM) (22Rvl). On the procedure: as §1, with “Active candidate inhibitors against MELK were evaluated for their target-specific cytotoxicity using 22Rv1, T47D, A549, DU4475 and HT-1197 cells was used for negative control. 100” for “100”

The next assay deals with DU4475 cells. Described as above. On the set-up: species or system human. The settings on record: Homo sapiens, DU-4475, 72 h, read-out: IC50 (μM) (DU4475). On the procedure: as §1, with “Active candidate inhibitors against MELK were evaluated for their target-specific cytotoxicity using 22Rv1, T47D, A549, DU4475 and HT-1197 cells was used for negative control. 100” for “100”

The test system of a further assay is T47D cells. The assay is described as above. Also on record: species or system human. The following applies: Homo sapiens, T47D, 72 h, read-out: IC50 (μM) (T47D). On the procedure:
as §1, with “Active candidate inhibitors against MELK were evaluated for their target-specific cytotoxicity using 22Rv1, T47D, A549, DU4475 and HT-1197 cells was used for negative control. 100” for “100”

Counter-ions that a name gives are not always drawn.

Chain of MELK (Q14680 whole entry, looked up): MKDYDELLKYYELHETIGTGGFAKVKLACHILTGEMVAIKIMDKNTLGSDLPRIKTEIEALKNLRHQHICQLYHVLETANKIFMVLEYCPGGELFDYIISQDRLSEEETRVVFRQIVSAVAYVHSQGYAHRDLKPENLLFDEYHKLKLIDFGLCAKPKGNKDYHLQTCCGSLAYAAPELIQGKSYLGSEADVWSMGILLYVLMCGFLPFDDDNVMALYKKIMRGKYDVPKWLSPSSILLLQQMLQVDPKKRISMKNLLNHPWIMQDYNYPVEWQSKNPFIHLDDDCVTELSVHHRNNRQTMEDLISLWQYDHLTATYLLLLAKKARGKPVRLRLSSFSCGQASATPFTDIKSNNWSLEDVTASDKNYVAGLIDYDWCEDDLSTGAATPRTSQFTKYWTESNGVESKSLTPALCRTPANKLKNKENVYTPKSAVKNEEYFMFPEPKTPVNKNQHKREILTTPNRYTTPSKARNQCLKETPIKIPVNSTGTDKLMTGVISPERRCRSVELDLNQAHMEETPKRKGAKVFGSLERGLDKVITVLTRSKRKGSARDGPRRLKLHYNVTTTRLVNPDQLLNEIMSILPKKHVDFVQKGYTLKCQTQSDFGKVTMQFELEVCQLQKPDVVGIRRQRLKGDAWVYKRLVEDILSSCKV

In the case of `CC(=O)c1cnc2ccc(-c3cc(F)c(O)c(Cl)c3)nc2c1N[C@H]1CC[C@H](CCN(C)C)CC1` [Example 10, 1-(6-(3-Chloro-5-fluoro-4-hydroxyphenyl)-4-{trans-4-[2-(dimethylamino)ethyl]-cyclohexylamino}-1,5-naphthyridin-3-yl)ethanone dihydrochloride], the IC50 in the assay on HT1197 cells stood at 0.2 µM; on MELK it was 0.0014 µM; with A549 cells, 0.012 µM; in the assay on 22Rv1 cells, 0.01 µM; with DU4475 cells, 0.0049 µM; in the assay with T47D cells, 0.0039 µM.

Take `CC(=O)c1cnc2ccc(-c3ccc(O)c(OC(F)(F)F)c3)nc2c1N[C@H]1CC[C@H](CN(C)C)CC1` [Example 11, 1-(4-{trans-4-[(Dimethylamino)methyl]cyclohexylamino}-6-[4-hydroxy-3-(trifluoromethoxy)-phenyl]-1,5-naphthyridin-3-yl)ethanone dihydrochloride]: the IC50 in the assay with HT1197 cells was 0.14 µM; at MELK it was 0.0027 µM; in the assay with A549 cells, 0.042 µM; in the assay with 22Rv1 cells, 0.066 µM; in the assay on DU4475 cells, 0.049 µM; in the assay with T47D cells, 0.027 µM.

`CN(C)C[C@H]1CC[C@H](Nc2c(S(C)(=O)=O)cnc3ccc(-c4cc(Cl)c(O)c(Cl)c4)nc23)CC1` [Example 12, 2,6-Dichloro-4-(8-{trans-4-[(dimethylamino)methyl]cyclohexylamino}-7-(methylsulfonyl)-1,5-naphthyridin-2-yl)phenol dihydrochloride]: the half-maximal inhibitory concentration (IC50) in the assay with HT1197 cells is 0.46 µM; on MELK, 0.001 µM; in the assay on A549 cells, 0.053 µM; with 22Rv1 cells, 0.019 µM; with DU4475 cells it was 0.0045 µM; with T47D cells, 0.019 µM.

`CN(C)C[C@H]1CC[C@H](Nc2c(S(C)(=O)=O)cnc3ccc(-c4cc(F)c(O)c(Cl)c4)nc23)CC1` [Example 13, 6-(3-Chloro-5-fluoro-4-hydroxyphenyl)-4-({trans-4-[(dimethylamino)methyl]cyclohexyl}-amino)-3-methylsulfonyl-1,5-naphthyridine dihydrochloride]: the IC50 with HT1197 cells was found to be 0.32 µM; on MELK, 0.0014 µM; in the assay on A549 cells, 0.073 µM; in the assay on 22Rv1 cells, 0.019 µM; with DU4475 cells it was 0.0068 µM; in the assay on T47D cells it was 0.013 µM.

Consider `COc1cc(-c2ccc3ncc(S(C)(=O)=O)c(N[C@H]4CC[C@H](CN(C)C)CC4)c3n2)cc(Cl)c1O` [Example 14, 6-(3-Chloro-4-hydroxy-5-methoxyphenyl)-4-{trans-4-[(dimethylamino)methyl]-cyclohexylamino}-3-methylsulfonyl-1,5-naphthyridine-dihydrochloride], for which the IC50 in the assay on HT1197 cells turned out to be 0.14 µM; at MELK it was 0.0009 µM; in the assay on A549 cells it was 0.033 µM; in the assay on 22Rv1 cells, 0.05 µM; in the assay on DU4475 cells, 0.0096 µM; in the assay on T47D cells, 0.027 µM.

With `CN(C)[C@H]1CC[C@H](Nc2c(S(C)(=O)=O)cnc3ccc(-c4cc(Cl)c(O)c(Cl)c4)nc23)CC1` [Example 15, 2,6-Dichloro-4-{8-[trans-4-(dimethylamino)cyclohexylamino]-7-(methylsulfonyl)-1,5-naphthyridin-2-yl}phenol dihydrochloride], the IC50 with HT1197 cells stood at 2.2 µM; at MELK it was 0.0005 µM; with A549 cells it was 0.092 µM; in the assay with 22Rv1 cells it was 0.026 µM; in the assay with DU4475 cells, 0.0027 µM; in the assay with T47D cells it was 0.018 µM.

Turning to `CN(C)Cc1ccc(Nc2c(S(C)(=O)=O)cnc3ccc(-c4cc(Cl)c(O)c(Cl)c4)nc23)cc1` [Example 16, 2,6-Dichloro-4-(8-{4-[(dimethylamino)methyl]phenylamino}-7-(methylsulfonyl)-1,5-naphthyridin-2-yl)phenol dihydrochloride], the IC50 is 4.4 µM in the assay on HT1197 cells; 0.0028 µM against MELK; 0.47 µM in the assay with A549 cells; 0.17 µM with 22Rv1 cells; 0.031 µM with DU4475 cells; 0.078 µM in the assay on T47D cells.

Regarding `CN(C)Cc1ccc(Nc2c(S(C)(=O)=O)cnc3ccc(-c4cc(F)c(O)c(Cl)c4)nc23)cc1` [Example 17, 2-Chloro-4-(8-{4-[(dimethylamino)methyl]phenylamino}-7-(methylsulfonyl)-1,5-naphthyridin-2-yl)-6-fluorophenol dihydrochloride], the IC50 with HT1197 cells came to 6.6 µM; against MELK, 0.0081 µM; in the assay with A549 cells it was 0.83 µM; in the assay on 22Rv1 cells it was 0.33 µM; in the assay with DU4475 cells it was 0.064 µM; in the assay on T47D cells it was 0.13 µM.

As to `COc1cc(-c2ccc3ncc(S(C)(=O)=O)c(Nc4ccc(CN(C)C)cc4)c3n2)cc(Cl)c1O` [Example 18, 2-Chloro-4-(8-{4-[(dimethylamino)methyl]phenylamino}-7-(methylsulfonyl)-1,5-naphthyridin-2-yl)-6-methoxyphenol dihydrochloride], the IC50 with HT1197 cells was 3.8 µM; at MELK, 0.005 µM; in the assay with A549 cells, 0.69 µM; in the assay on 22Rv1 cells, 1 µM; with DU4475 cells, 0.31 µM; in the assay with T47D cells it was 0.32 µM.

Regarding `CC(=O)c1cnc2ccc(-c3cc(Cl)c(O)c(Cl)c3)nc2c1Nc1cccc(CCN2CCCC2)c1` [Example 19, 1-[6-(3,5-Dichloro-4-hydroxyphenyl)-4-{3-[2-(pyrrolidin-1-yl)ethyl]phenylamino}-1,5-naphthyridin-3-yl]ethanone dihydrochloride], the IC50 in the assay with HT1197 cells was 7 µM; on MELK, 0.032 µM; with A549 cells, 0.14 µM; in the assay with 22Rv1 cells it was 0.63 µM; with DU4475 cells it was 0.11 µM; in the assay on T47D cells, 0.59 µM.

In the case of `CC(=O)c1cnc2ccc(-c3cc(F)c(O)c(Cl)c3)nc2c1Nc1cccc(CCN2CCCC2)c1` [Example 20, 1-[6-(3-Chloro-5-fluoro-4-hydroxyphenyl)-4-{3-[2-(pyrrolidin-1-yl)ethyl]phenylamino}-1,5-naphthyridin-3-yl]ethanone dihydrochloride], the IC50 in the assay on HT1197 cells was 4.8 µM; against MELK, 0.14 µM; in the assay on A549 cells, 0.31 µM; in the assay with 22Rv1 cells, 0.81 µM; in the assay with DU4475 cells, 0.21 µM; with T47D cells it was 0.5 µM.

On to `CC(=O)c1cnc2ccc(-c3cc(Cl)c(O)c(Cl)c3)nc2c1Nc1ccc(OCCN(C)C)nc1` [Example 21, 1-[6-(3,5-Dichloro-4-hydroxyphenyl)-4-{6-[2-(dimethylamino)ethoxy]pyridin-3-ylamino}-1,5-naphthyridin-3-yl)ethanone dihydrochloride], for which the IC50 in the assay with HT1197 cells was determined as 2.3 µM; against MELK, 0.0046 µM; in the assay on A549 cells, 0.21 µM; in the assay on 22Rv1 cells it was 0.27 µM; in the assay with DU4475 cells it was 0.096 µM; in the assay on T47D cells, 0.1 µM.

Consider `CC(=O)c1cnc2ccc(-c3cc(F)c(O)c(Cl)c3)nc2c1Nc1ccc(OCCN(C)C)nc1` [Example 22, 1-[6-(3-Chloro-5-fluoro-4-hydroxyphenyl)-4-{6-[2-(dimethylamino)ethoxy]pyridin-3-ylamino}-1,5-naphthyridin-3-yl)ethanone dihydrochloride], for which the IC50 in the assay on HT1197 cells worked out at 3.5 µM; on MELK, 0.015 µM; with A549 cells it was 0.29 µM; with 22Rv1 cells it was 0.35 µM; in the assay with DU4475 cells it was 0.31 µM; in the assay with T47D cells, 0.1 µM.

For the molecule `COc1cc(-c2ccc3ncc(C(C)=O)c(Nc4ccc(OCCN(C)C)nc4)c3n2)cc(Cl)c1O` [Example 23, 1-[6-(3-Chloro-4-hydroxy-5-methoxyphenyl)-4-{6-[2-(dimethylamino)ethoxy]pyridin-3-ylamino}-1,5-naphthyridin-3-yl]ethanone dihydrochloride], the IC50 was determined as 8.9 µM in the assay with HT1197 cells; 0.0089 µM against MELK; 0.47 µM with A549 cells; 1.3 µM in the assay with 22Rv1 cells; 0.41 µM in the assay with DU4475 cells; 0.38 µM in the assay on T47D cells.

Take `CN(C)CCOc1ccc(Nc2c(S(C)(=O)=O)cnc3ccc(-c4cc(Cl)c(O)c(Cl)c4)nc23)cn1` [Example 24, 2,6-Dichloro-4-(8-{6-[2-(dimethylamino)ethoxy]pyridin-3-ylamino}-7-(methylsulfonyl)-1,5-naphthyridin-2-yl)phenol hydrochloride]: the IC50 with HT1197 cells is 15 µM; against MELK it was 0.0053 µM; in the assay on A549 cells, 5.1 µM; with 22Rv1 cells, 1.8 µM; with DU4475 cells it was 0.38 µM; in the assay on T47D cells, 0.58 µM.
